Assay results taken from US3968204A, “Antibiotic A-2315” (priority 1975, dated 1976).
≈ marks a conversion by molar mass, not a printed value.

Key:
Acute toxicity in mice = type: in vivo
Method: The acute toxicity of antibiotic A-2315 factor A, administered either orally or subcutaneously to mice and expressed as LDo, is greater than 500 mg./kg. The acute toxicities of the A-2315 factors, administered intraperitoneally to mice and expressed as LD50 are as follows: […]

[1] = system: Bacteriodes fragilis ssp. vulgates; assay: MIC, anaerobic bacteria; type: cell-based
Shigella flexneri = assay: Disc-plate MIC; type: cell-based; conditions: Disc-Plate Method
[2] = Growth performance of growing chicks; type: in vivo; conditions: 45.4 grams/ton in diet
Method: Still another useful property of the A-2315 antibiotics is their ability to improve growth performance in animals. For example, when A-2315 factor A was added to the diet of growing chicks at a level of 45.4 grams/ton, the average weight gain after 10 days was 159 grams, as compared with an average weight gain of 148 grams for the control group. The feed-conversion efficiency (feed/gain) for chickens fed antibiotic A-2315 factor A was 1.44; in contrast, the feed-conversion efficiency for the control group was 1.53.

Bacillus subtilis = assay: Disc-plate MIC; conditions: Disc-Plate Method
Proteus sp. = assay: Disc-plate MIC; conditions: Disc-Plate Method
Veillonella alcalescens = assay: MIC, anaerobic bacteria; type: cell-based; conditions: Veillonella parvula
Streptococcus mutans = assay: Broth-dilution growth inhibition of cariogenic organism; type: cell-based; conditions: read-out: growth inhibiting concentration
Method: (§1) In another aspect of the present invention, the A-2315 antibiotics have the ability to inhibit the growth of microorganisms contributing to the development of periodontal disease. In broth-dilution tests, A-2315 factor A inhibits the growth of the cariogenic organism Streptococcus mutans at concentrations of 1-2 μg/ml and inhibits the growth of cariogenic filamentous rods at a concentration as low as 0.1 μg/ml.

[3] = system: cariogenic filamentous rods; assay: as above; type: cell-based; conditions: read-out: growth inhibiting concentration (as low as)
Method: as §1

[4] = system: Fusobacterium necrophorum; assay: MIC, anaerobic bacteria; type: cell-based
Actinomyces bovis = assay: MIC, anaerobic bacteria; type: cell-based
[5] = system: Staphylococcus aureus 3074; assay: Agar-dilution MIC; type: cell-based
Clostridium perfringens = assay: microbe, parasite or virus in culture; type: cell-based
[6] = system: Mycoplasma gallisepticum isolate 38502 (tylosin sensitive); assay: Broth-dilution MIC; type: cell-based; conditions: Mycoplasmoides gallisepticum
Excerpt: (§2) Another useful property of the A-2315 antibiotics is activity against Mycoplasma gallisepticum, an organism pathogenic for poultry. Of particular interest is the activity of the A-2315 antibiotics against strains of this organism that are resistant to tylosin. The minimal inhibitory concentrations of A-2315 factor A, as determined by in vitro broth-dilution studies, are summarized in Table V below: […]

[7] = system: Mycoplasma gallisepticum isolate 42854 (tylosin resistant); assay: Broth-dilution MIC; type: cell-based; conditions: Mycoplasmoides gallisepticum
Excerpt: as §2

[8] = system: Mycoplasma gallisepticum isolate 43480 (tylosin resistant); assay: Broth-dilution MIC; type: cell-based; conditions: Mycoplasmoides gallisepticum
Excerpt: as §2

[9] = system: Mycoplasma gallisepticum isolate 41313 (tylosin resistant); assay: Broth-dilution MIC; type: cell-based; conditions: Mycoplasmoides gallisepticum
Excerpt: as §2

[10] = system: Mycoplasma gallisepticum isolate 34159 (tylosin resistant); assay: Broth-dilution MIC; type: cell-based; conditions: Mycoplasmoides gallisepticum
Excerpt: as §2

[11] = system: anthracnose (Colletotrichum lagenarium); type: in vivo; conditions: 400 ppm
Excerpt: (§3) In yet another aspect of the invention, the A-2315 antibiotics are useful as plant-fungicidal agents.

Streptococcus faecalis = assay: Agar-dilution MIC; type: cell-based; conditions: Enterococcus faecalis; Agar-Dilution Method
Salmonella typhosa = assay: Disc-plate MIC; conditions: Disc-Plate Method
Eubacterium aerofaciens = assay: MIC, anaerobic bacteria; type: cell-based; conditions: Collinsella aerofaciens
Streptococcus pyogenes = assay: Disc-plate MIC; conditions: Disc-Plate Method
Electrometric titration = type: physicochemical; conditions: 66 percent dimethylformamide in water
Method: Antibiotic A-2315 factor A is a white, amorphous solid, having a molecular weight of 503.2638, as determined by mass spectrometry, and an elemental analysis as follows: 61.51 percent carbon, 7.51 percent hydrogen, 8.69 percent nitrogen, and 21.53 percent oxygen. […] The specific rotation of A-2315 factor A is -132° when determined at a temperature of 27°C. in methanol in which the concentration of the antibiotic is 0.375 percent on a weight per volume basis.
Antibiotic A-2315 factor B is a white, amorphous solid, having a molecular weight of 501, as determined by mass spectrometry, and an elemental analysis as follows: 61.81 percent carbon, 7.02 percent hydrogen, 8.81 percent nitrogen, and 21.42 percent oxygen.
Antibiotic A-2315 factor C is a white, amorphous solid, having a molecular weight of 487, as determined by mass spectrometry, and an elemental analysis as follows: 61.04 percent carbon, 7.00 percent hydrogen, 7.96 percent nitrogen, and 22.61 percent oxygen. Based on elemental analysis and molecular weight, an empirical formula of C25 H33 N3 O7 is assigned to factor C.

[12] = system: bean rust (Uromyces phaseoli var. typica); assay: Plant-fungicidal activity on bean plants; type: in vivo; conditions: 400 ppm
Excerpt: as §3

Erwinia amylovora = assay: Agar-dilution MIC; type: cell-based; conditions: Agar-Dilution Method
[13] = system: experimental bacterial infections; assay: In vivo antimicrobial action in mice; conditions: subcutaneous injection
Method: When two doses each of A-2315 factors were administered to mice in illustrative infections, the ED50 values [effective dose in mg/kg to protect 50 percent of the test aninals; see Warren Wick, et al., J. Bacteriol.

[14] = system: Staphylococcus aureus 3055; assay: Disc-plate MIC; conditions: Disc-Plate Method; benzylpenicillin-susceptible
[15] = system: Peptostreptococcus intermedius; assay: MIC, anaerobic bacteria; type: cell-based

CC1=CC(O)CC(O)Cc2nc(co2)C(=O)NC(C)C(=O)OC(C(C)C)C(C)C=CC(=O)NCC=C1 (stereo not shown) [Factor A]
LD50 (Acute toxicity in mice; mouse, in vivo, ip, intraperitoneally): > 400 mg/kg | acute toxicity, LDo (Acute toxicity in mice; orally): greater than 500 mg./kg. | acute toxicity, LDo (Acute toxicity in mice; subcutaneously): greater than 500 mg./kg. | MIC [1]: 64 µg/mL (≈ 127 µM) | MIC (Shigella flexneri): 1.56 μg/disc | average weight gain ([2]; after 10 days, control 148 grams): 159 grams | feed-conversion efficiency (feed/gain) ([2]; control 1.53): 1.44 | MIC (Bacillus subtilis): 50. μg/disc | MIC (Proteus sp.): 100. μg/disc | MIC (Veillonella alcalescens): 16 µg/mL (≈ 31.8 µM) | MIC (Streptococcus mutans): 1 to 2 µg/mL (≈ 1.99 to 3.97 µM) | MIC [3]: 0.1 µg/mL (≈ 0.199 µM) | MIC [4]: 16 µg/mL (≈ 31.8 µM) | MIC (Actinomyces bovis): 16 µg/mL (≈ 31.8 µM) | MIC [5]: 1.56 µg/mL (≈ 3.1 µM) | MIC (Clostridium perfringens): 32 µg/mL (≈ 63.5 µM) | MIC [6]: < 0.097 µg/mL | MIC [7]: 0.195 µg/mL (≈ 0.387 µM) | MIC [8]: < 0.097 µg/mL | MIC [9]: 0.78 µg/mL (≈ 1.55 µM) | MIC [10]: 0.195 µg/mL (≈ 0.387 µM) | protection of cucumber plants [11]: moderate protection | phytotoxicity ([11]; cucumber plants): Only slight phytotoxicity | MIC (Streptococcus faecalis): 1.56 µg/mL (≈ 3.1 µM) | MIC (Salmonella typhosa): 12.5 μg/disc | MIC (Eubacterium aerofaciens): 16 µg/mL (≈ 31.8 µM) | MIC (Streptococcus pyogenes): 0.012 μg/disc | titratable groups (Electrometric titration): did not indicate the presence of titratable groups | protection of bean plants [12]: protected | phytotoxicity ([12]; bean plants): Only slight phytotoxicity | MIC (Erwinia amylovora): 50 µg/mL (≈ 99.3 µM) | in vivo antimicrobial action [13]: have shown in vivo antimicrobial action | MIC [14]: 0.025 μg/disc | MIC [15]: 8 µg/mL (≈ 15.9 µM)
